Measured values as given in ChEMBL document CHEMBL5518181, “Studies of antibacterial activity (in vitro and in vivo) and mode of action for des-acyl tridecaptins (DATs)” (Eur J Med Chem, 2024).
pKd: −log10 of the molar value. ≈ marks a conversion by molar mass, not a printed value.

Legend:
Pseudomonas aeruginosa = assay: Antibacterial activity against wild-type Pseudomonas aeruginosa PAO1 assessed as inhibition of bacterial growth incubated for 24 hrs; type: functional; conditions: read-out: MIC100
Klebsiella pneumoniae [1] = assay: Antibacterial activity against wild-type Klebsiella pneumoniae ATCC 13883 assessed as inhibition of bacterial growth incubated for 18 hrs; type: functional; conditions: read-out: MIC100
Acinetobacter baumannii = assay: Antibacterial activity against wild-type Acinetobacter baumannii ATCC 19606 assessed as inhibition of bacterial growth incubated for 20 hrs; type: functional; conditions: read-out: MIC100
Escherichia coli [2] = assay: Antibacterial activity against wild-type Escherichia coli ATCC 25922 assessed as inhibition of bacterial growth by measuring fold increase in MIC incubated for 18 hrs in presence of 50% heat inactivated human serum relative to control; type: functional
[3] = Hemolytic activity in human red blood cells at 400 ug/ml incubated for 45 mins by spectrophotometric analysis relative to control; type: toxicity, cell-based, Erythrocyte; conditions: red blood cells (erythrocytes), at 400 µg/mL, read-out: Activity
Escherichia coli [4] = assay: Antibacterial activity against wild-type Escherichia coli ATCC 25922 assessed as inhibition of bacterial growth incubated for 18 hrs in presence of 50% heat inactivated human serum; type: functional; conditions: read-out: MIC100
Escherichia coli [5] = assay: Antibacterial activity against wild-type Escherichia coli ATCC 25922 assessed as inhibition of bacterial growth incubated for 18 hrs; type: functional; conditions: read-out: MIC100
[6] = Hydrophobicity of compound assessed as %MeCN at peak elution by RP-HPLC analysis; type: physicochemical
Staphylococcus aureus = assay: Antibacterial activity against […] assessed as inhibition of bacterial growth incubated for 18 hrs; type: functional; conditions: ATCC 29213, read-out: MIC100
Escherichia coli [7] = assay: Antibacterial activity against Escherichia coli ATCC 25922 harboring hldE knock-out assessed as inhibition of bacterial growth incubated for 18 hrs; type: functional; conditions: read-out: MIC100
Klebsiella pneumoniae [8] = assay: Antibacterial activity against wild-type Klebsiella pneumoniae ATCC 13883 assessed as inhibition of bacterial growth incubated for 18 hrs in presence of 50% heat inactivated human serum; type: functional; conditions: read-out: MIC100
Escherichia coli [9] = assay: Antibacterial activity against Escherichia coli ATCC 25922 harboring tolC knock-out assessed as inhibition of bacterial growth incubated for 18 hrs; type: functional; conditions: read-out: MIC100
[10] = Cytotoxicity against human HepG2 cells incubated for 40 hrs by celltiter-glo luminescent cell viability assay; type: toxicity, cell-based
[11] = Binding affinity to gram negative bacterial lipid II assessed as dissociation constant by ITC analysis; design: species or system Bacteria

SMILES	MIC (Pseudomonas aeruginosa) [µg/mL]	MIC (Klebsiella pneumoniae [1]) [µg/mL]	MIC (Acinetobacter baumannii) [µg/mL]	fold change (FC) (Escherichia coli [2])	hemolysis at 0.75 h, 400 ug/ml [3] [%]	MIC (Escherichia coli [4]) [µg/mL]	MIC (Escherichia coli [5]) [µg/mL]	MeCN percentage at peak elution [6] [%]	MIC (Staphylococcus aureus) [µg/mL]	MIC (Escherichia coli [7]) [µg/mL]	MIC (Klebsiella pneumoniae [8]) [µg/mL]	MIC (Escherichia coli [9]) [µg/mL]	IC50 at 40 h [10] [µg/mL]	pKd [11]
CC[C@H](N)C(=O)N[C@@H](C(=O)N[C@H](CCN)C(=O)NCC(=O)N[C@H](CO)C(=O)N[C@H](Cc1c[nH]c2ccccc12)C(=O)N[C@@H](CO)C(=O)N[C@@H](CCN)C(=O)N[C@H](CCN)C(=O)N[C@@H](Cc1ccccc1)C(=O)N[C@@H](CCC(=O)O)C(=O)N[C@H](C(=O)N[C@@H](C(=O)N[C@@H](C)C(=O)O)[C@@H](C)CC)C(C)C)C(C)C	64 (≈ 43.3 µM)	2 (≈ 1.35 µM)	64 (≈ 43.3 µM)	2	8.8	1	2 (≈ 1.35 µM)	40.7	> 64	1 (≈ 0.676 µM)	0.5	1 (≈ 0.676 µM)	95 (≈ 64.2 µM)	–
CC[C@H](C)[C@@H](NC(=O)[C@@H](NC(=O)[C@H](CCC(=O)O)NC(=O)[C@H](Cc1ccccc1)NC(=O)[C@@H](CCN)NC(=O)[C@H](CCN)NC(=O)[C@H](CO)NC(=O)[C@@H](Cc1c[nH]c2ccccc12)NC(=O)[C@@H](CO)NC(=O)CNC(=O)[C@@H](CCN)NC(=O)[C@H](N)C(C)C)C(C)C)C(=O)O	–	> 64	–	–	1	–	> 64	–	–	–	–	–	> 170	6.64
CC[C@H](C)[C@@H](NC(=O)[C@@H](NC(=O)[C@H](CCC(=O)O)NC(=O)[C@H](Cc1ccccc1)NC(=O)[C@@H](CCN)NC(=O)[C@H](CCN)NC(=O)[C@H](CO)NC(=O)[C@@H](Cc1c[nH]c2ccccc12)NC(=O)[C@@H](CO)NC(=O)CNC(=O)[C@@H](CCN)NC(=O)[C@H](NC(=O)[C@@H](N)C(C)C)C(C)C)C(C)C)C(=O)N[C@@H](C)C(=O)O	64 (≈ 42.8 µM)	2 (≈ 1.34 µM)	64 (≈ 42.8 µM)	2	14.6	1	2 (≈ 1.34 µM)	41.5	> 64	32 (≈ 21.4 µM)	0.5	1 (≈ 0.669 µM)	87 (≈ 58.2 µM)	–
CC[C@H](C)[C@@H](NC(=O)[C@@H](NC(=O)[C@H](CCC(=O)O)NC(=O)[C@H](Cc1ccccc1)NC(=O)[C@@H](CCN)NC(=O)[C@H](CCN)NC(=O)[C@H](CO)NC(=O)[C@@H](Cc1c[nH]c2ccccc12)NC(=O)[C@@H](CO)NC(=O)CNC(=O)[C@@H](CCN)NC(=O)[C@H](NC(=O)CCN)C(C)C)C(C)C)C(=O)N[C@@H](C)C(=O)O	8 (≈ 5.46 µM)	2 (≈ 1.36 µM)	32 (≈ 21.8 µM)	–	0	–	≥ 2	39.8	64 (≈ 43.7 µM)	0.5 (≈ 0.341 µM)	–	0.5 (≈ 0.341 µM)	> 170	6.41
CC[C@H](C)[C@@H](NC(=O)[C@@H](NC(=O)[C@H](CCC(=O)O)NC(=O)[C@H](Cc1ccccc1)NC(=O)[C@@H](CCN)NC(=O)[C@H](CCN)NC(=O)[C@H](CCN)NC(=O)[C@@H](Cc1c[nH]c2ccccc12)NC(=O)[C@@H](CO)NC(=O)CNC(=O)[C@@H](CCN)NC(=O)[C@H](N)C(C)C)C(C)C)C(=O)N[C@@H](C)C(=O)O	–	> 64	–	–	1.1	–	> 64	–	–	–	–	–	> 170	6.10
CC[C@H](C)[C@@H](NC(=O)[C@@H](NC(=O)[C@H](CCC(=O)O)NC(=O)[C@H](Cc1ccccc1)NC(=O)[C@@H](CCN)NC(=O)[C@H](CCN)NC(=O)[C@H](CO)NC(=O)[C@@H](Cc1c[nH]c2ccccc12)NC(=O)[C@@H](CO)NC(=O)CNC(=O)[C@@H](CCN)NC(=O)[C@H](NC(=O)[C@H](C)N)C(C)C)C(C)C)C(=O)N[C@@H](C)C(N)=O	–	32 (≈ 21.8 µM)	–	–	1.5	–	8 (≈ 5.46 µM)	–	–	–	–	–	> 170	6.11
CC[C@H](C)[C@@H](NC(=O)[C@@H](NC(=O)[C@H](CCC(=O)O)NC(=O)[C@H](Cc1ccccc1)NC(=O)[C@@H](C)NC(=O)[C@H](CCN)NC(=O)[C@H](CO)NC(=O)[C@@H](Cc1c[nH]c2ccccc12)NC(=O)[C@@H](CO)NC(=O)CNC(=O)[C@@H](CCN)NC(=O)[C@H](NC(=O)[C@H](C)N)C(C)C)C(C)C)C(=O)N[C@@H](C)C(=O)O	> 64	16 (≈ 11.1 µM)	64 (≈ 44.5 µM)	–	4.5	8	16 (≈ 11.1 µM)	45.9	> 64	8 (≈ 5.57 µM)	16	8 (≈ 5.57 µM)	35 (≈ 24.4 µM)	–
CC[C@H](C)[C@@H](NC(=O)[C@@H](NC(=O)[C@H](CCC(=O)O)NC(=O)[C@H](Cc1ccccc1)NC(=O)[C@@H](CCN)NC(=O)[C@H](C)NC(=O)[C@H](CO)NC(=O)[C@@H](Cc1c[nH]c2ccccc12)NC(=O)[C@@H](CO)NC(=O)CNC(=O)[C@@H](CCN)NC(=O)[C@H](NC(=O)[C@H](C)N)C(C)C)C(C)C)C(=O)N[C@@H](C)C(=O)O	> 64	4 (≈ 2.78 µM)	32 (≈ 22.3 µM)	–	7.9	8	8 (≈ 5.57 µM)	44.3	> 64	4 (≈ 2.78 µM)	16	8 (≈ 5.57 µM)	121 (≈ 84.2 µM)	5.43
CC(C)[C@H](NC(=O)[C@H](CCC(=O)O)NC(=O)[C@H](Cc1ccccc1)NC(=O)[C@@H](CCN)NC(=O)[C@H](CCN)NC(=O)[C@H](CO)NC(=O)[C@@H](Cc1c[nH]c2ccccc12)NC(=O)[C@@H](CO)NC(=O)CNC(=O)[C@@H](CCN)NC(=O)[C@H](N)C(C)C)C(=O)N[C@@H](C(=O)N[C@@H](C)C(N)=O)C(C)(C)C	–	2 (≈ 1.44 µM)	–	–	1.6	–	16 (≈ 11.5 µM)	–	–	–	–	–	127 (≈ 91.1 µM)	6.48
CC(C)[C@H](NC(=O)[C@H](CCC(=O)O)NC(=O)[C@H](Cc1ccccc1)NC(=O)[C@@H](CCN)NC(=O)[C@H](CCN)NC(=O)[C@H](CO)NC(=O)[C@@H](Cc1c[nH]c2ccccc12)NC(=O)[C@@H](CO)NC(=O)CNC(=O)[C@@H](CCN)NC(=O)[C@H](NC(=O)[C@H](C)N)C(C)C)C(=O)N[C@H](C)C(=O)N[C@@H](C)C(=O)O	64 (≈ 45 µM)	32 (≈ 22.5 µM)	> 64	–	5	32	64 (≈ 45 µM)	37.7	> 64	8 (≈ 5.62 µM)	16	32 (≈ 22.5 µM)	47 (≈ 33 µM)	–
CC[C@H](C)[C@@H](NC(=O)[C@@H](NC(=O)[C@H](CCC(=O)O)NC(=O)[C@H](Cc1ccccc1)NC(=O)[C@@H](CCN)NC(=O)[C@H](CCN)NC(=O)[C@H](CO)NC(=O)[C@@H](Cc1c[nH]c2ccccc12)NC(=O)[C@@H](CO)NC(=O)CNC(=O)[C@@H](CCN)NC(=O)[C@H](NC(=O)[C@@H](C)N)C(C)C)C(C)C)C(=O)N[C@@H](C)C(=O)O	32 (≈ 21.8 µM)	2 (≈ 1.36 µM)	> 64	–	2.3	4	4 (≈ 2.73 µM)	39.6	> 64	2 (≈ 1.36 µM)	4	4 (≈ 2.73 µM)	98 (≈ 66.9 µM)	–
CC[C@H](C)[C@@H](NC(=O)[C@@H](NC(=O)[C@H](CCC(=O)O)NC(=O)[C@H](Cc1ccccc1)NC(=O)[C@@H](CN)NC(=O)[C@H](CCN)NC(=O)[C@H](CO)NC(=O)[C@@H](Cc1c[nH]c2ccccc12)NC(=O)[C@@H](CO)NC(=O)CNC(=O)[C@@H](CCN)NC(=O)[C@H](N)C(C)C)C(C)C)C(=O)N[C@@H](C)C(=O)O	–	> 64	–	–	1.6	–	> 64	–	–	–	–	–	> 170	5.93
CC[C@H](C)[C@@H](NC(=O)[C@@H](NC(=O)[C@H](C)NC(=O)[C@H](Cc1ccccc1)NC(=O)[C@@H](CCN)NC(=O)[C@H](CCN)NC(=O)[C@H](CO)NC(=O)[C@@H](Cc1c[nH]c2ccccc12)NC(=O)[C@@H](CO)NC(=O)CNC(=O)[C@@H](CCN)NC(=O)[C@H](N)C(C)C)C(C)C)C(=O)N[C@@H](C)C(=O)O	–	> 64	–	–	0	–	> 64	–	–	–	–	–	> 170	5.91
CC[C@H](C)[C@@H](NC(=O)[C@H](CC1CCCCC1)NC(=O)[C@H](CCC(=O)O)NC(=O)[C@H](Cc1ccccc1)NC(=O)[C@@H](CCN)NC(=O)[C@H](CCN)NC(=O)[C@H](CO)NC(=O)[C@@H](Cc1c[nH]c2ccccc12)NC(=O)[C@@H](CO)NC(=O)CNC(=O)[C@@H](CCN)NC(=O)[C@H](N)C(C)C)C(=O)N[C@@H](C)C(=O)O	> 64	8 (≈ 5.52 µM)	64 (≈ 44.2 µM)	–	59.1	16	8 (≈ 5.52 µM)	43.9	> 64	2 (≈ 1.38 µM)	4	< 0.125	46 (≈ 31.8 µM)	–
CC[C@H](C)[C@@H](NC(=O)[C@@H](NC(=O)[C@H](CCC(N)=O)NC(=O)[C@H](Cc1ccccc1)NC(=O)[C@@H](CCN)NC(=O)[C@H](CCN)NC(=O)[C@H](CO)NC(=O)[C@@H](Cc1c[nH]c2ccccc12)NC(=O)[C@@H](CO)NC(=O)CNC(=O)[C@@H](CCN)NC(=O)[C@H](N)C(C)C)C(C)C)C(=O)N[C@@H](C)C(=O)O	–	> 64	–	–	2.1	–	≥ 32	–	–	–	–	–	41 (≈ 29.4 µM)	5.85
